# Data published in ChEMBL document CHEMBL2074006, “Induction of ABCC3 (MRP3) by pregnane X receptor activators” (Drug Metab Dispos, 2003).
# Molecular target: ATP-binding cassette sub-family C member 2 (Mus musculus, UniProt Q8VI47)
# Assay: (§1) TP_TRANSPORTER: quantitative PCR in vivo, liver of mouse
# Type: functional, organism-based
# ATP-binding cassette sub-family C member 2, sequence (Q8VI47 whole entry): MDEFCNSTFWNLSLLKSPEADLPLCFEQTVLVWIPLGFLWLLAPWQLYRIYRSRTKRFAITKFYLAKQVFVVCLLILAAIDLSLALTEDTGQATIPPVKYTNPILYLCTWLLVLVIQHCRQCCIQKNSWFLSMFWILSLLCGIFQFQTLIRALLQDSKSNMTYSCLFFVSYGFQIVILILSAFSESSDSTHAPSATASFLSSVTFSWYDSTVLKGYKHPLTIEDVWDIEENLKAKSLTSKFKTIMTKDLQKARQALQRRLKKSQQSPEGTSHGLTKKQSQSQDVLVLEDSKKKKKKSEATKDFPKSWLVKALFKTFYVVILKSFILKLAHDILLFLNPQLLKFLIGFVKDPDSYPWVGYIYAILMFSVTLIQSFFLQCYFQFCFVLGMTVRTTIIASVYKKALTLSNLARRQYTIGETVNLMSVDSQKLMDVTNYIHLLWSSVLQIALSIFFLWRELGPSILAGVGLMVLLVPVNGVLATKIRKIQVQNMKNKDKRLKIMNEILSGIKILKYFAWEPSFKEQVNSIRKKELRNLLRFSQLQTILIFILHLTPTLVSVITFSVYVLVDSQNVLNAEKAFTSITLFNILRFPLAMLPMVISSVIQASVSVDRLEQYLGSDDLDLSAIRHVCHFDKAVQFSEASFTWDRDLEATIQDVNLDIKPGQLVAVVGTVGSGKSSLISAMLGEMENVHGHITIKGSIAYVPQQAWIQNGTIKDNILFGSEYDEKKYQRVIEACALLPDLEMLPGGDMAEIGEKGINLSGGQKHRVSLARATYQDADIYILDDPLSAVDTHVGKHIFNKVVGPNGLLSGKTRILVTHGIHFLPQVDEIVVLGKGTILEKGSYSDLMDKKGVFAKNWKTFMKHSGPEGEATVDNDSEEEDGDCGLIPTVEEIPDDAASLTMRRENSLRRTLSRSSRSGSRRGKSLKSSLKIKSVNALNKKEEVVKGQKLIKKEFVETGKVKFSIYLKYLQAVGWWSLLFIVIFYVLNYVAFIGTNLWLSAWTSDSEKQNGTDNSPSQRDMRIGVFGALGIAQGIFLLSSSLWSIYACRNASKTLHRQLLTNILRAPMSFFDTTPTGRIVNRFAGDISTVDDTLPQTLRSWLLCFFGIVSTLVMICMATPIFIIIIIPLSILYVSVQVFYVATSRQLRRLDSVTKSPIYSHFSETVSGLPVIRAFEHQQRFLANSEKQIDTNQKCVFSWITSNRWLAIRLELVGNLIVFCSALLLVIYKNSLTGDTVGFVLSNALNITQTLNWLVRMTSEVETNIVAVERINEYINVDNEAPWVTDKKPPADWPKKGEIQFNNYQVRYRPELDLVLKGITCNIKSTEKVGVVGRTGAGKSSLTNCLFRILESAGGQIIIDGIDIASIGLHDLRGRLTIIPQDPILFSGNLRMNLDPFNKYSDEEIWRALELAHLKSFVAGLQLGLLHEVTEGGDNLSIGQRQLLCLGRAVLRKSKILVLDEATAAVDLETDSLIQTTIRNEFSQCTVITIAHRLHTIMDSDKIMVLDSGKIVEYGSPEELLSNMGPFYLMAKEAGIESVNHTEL
row,SMILES,Activity
1,C#C[C@]1(O)CC[C@H]2[C@@H]3CCC4=CC(=O)CCC4=C3[C@@H](c3ccc(N(C)C)cc3)C[C@]21C,inducer []

# Molecular target: ATP-binding cassette sub-family C member 3 (Mus musculus, UniProt B2RX12)
# Assay: as §1
# Type: functional, organism-based
# ATP-binding cassette sub-family C member 3, sequence (B2RX12 whole entry): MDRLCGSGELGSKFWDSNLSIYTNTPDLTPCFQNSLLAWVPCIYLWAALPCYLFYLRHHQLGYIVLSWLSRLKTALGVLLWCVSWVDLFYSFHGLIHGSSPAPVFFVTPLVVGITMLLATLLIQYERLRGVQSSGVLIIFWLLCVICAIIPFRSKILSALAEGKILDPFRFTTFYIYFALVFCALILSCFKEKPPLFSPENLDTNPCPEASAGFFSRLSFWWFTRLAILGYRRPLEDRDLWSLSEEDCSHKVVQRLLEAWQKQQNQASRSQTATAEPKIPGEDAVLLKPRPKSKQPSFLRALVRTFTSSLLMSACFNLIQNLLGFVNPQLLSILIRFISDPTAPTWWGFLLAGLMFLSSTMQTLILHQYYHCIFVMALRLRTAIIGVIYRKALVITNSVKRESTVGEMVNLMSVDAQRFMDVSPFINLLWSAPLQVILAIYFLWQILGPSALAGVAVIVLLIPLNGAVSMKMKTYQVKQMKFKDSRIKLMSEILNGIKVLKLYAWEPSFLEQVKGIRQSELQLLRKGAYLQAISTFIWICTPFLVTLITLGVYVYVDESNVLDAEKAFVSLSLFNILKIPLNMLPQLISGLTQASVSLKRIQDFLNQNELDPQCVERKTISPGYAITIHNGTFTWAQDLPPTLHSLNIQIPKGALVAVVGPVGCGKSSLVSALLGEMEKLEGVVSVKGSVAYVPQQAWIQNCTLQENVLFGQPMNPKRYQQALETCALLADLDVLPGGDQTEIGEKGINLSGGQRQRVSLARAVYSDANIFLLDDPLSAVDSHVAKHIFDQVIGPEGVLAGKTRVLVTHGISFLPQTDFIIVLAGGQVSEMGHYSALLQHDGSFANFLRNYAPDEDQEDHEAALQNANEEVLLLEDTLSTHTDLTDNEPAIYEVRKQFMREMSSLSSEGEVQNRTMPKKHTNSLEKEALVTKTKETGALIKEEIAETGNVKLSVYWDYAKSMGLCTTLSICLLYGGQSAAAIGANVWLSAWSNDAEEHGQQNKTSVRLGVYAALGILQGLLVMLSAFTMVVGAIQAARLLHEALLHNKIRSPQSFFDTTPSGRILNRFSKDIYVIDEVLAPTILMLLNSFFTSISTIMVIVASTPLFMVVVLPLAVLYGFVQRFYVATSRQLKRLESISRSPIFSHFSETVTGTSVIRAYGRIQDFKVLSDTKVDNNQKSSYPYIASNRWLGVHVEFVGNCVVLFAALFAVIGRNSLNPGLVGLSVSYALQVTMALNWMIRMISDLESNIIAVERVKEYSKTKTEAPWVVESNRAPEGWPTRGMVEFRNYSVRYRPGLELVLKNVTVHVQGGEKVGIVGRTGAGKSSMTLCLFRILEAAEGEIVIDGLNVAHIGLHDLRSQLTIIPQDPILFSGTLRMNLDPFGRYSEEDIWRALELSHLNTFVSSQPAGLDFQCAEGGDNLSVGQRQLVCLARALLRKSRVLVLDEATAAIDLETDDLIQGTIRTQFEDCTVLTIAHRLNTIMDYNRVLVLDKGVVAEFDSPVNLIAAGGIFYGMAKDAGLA
row,SMILES,Activity
1,C#C[C@]1(O)CC[C@H]2[C@@H]3CCC4=CC(=O)CCC4=C3[C@@H](c3ccc(N(C)C)cc3)C[C@]21C,inducer []
2,Clc1ccccc1C(c1ccccc1)(c1ccccc1)n1ccnc1 [CLOTRIMAZOLE],inducer []
3,C[C@H](CCC(=O)O)[C@H]1CC[C@H]2[C@@H]3CC[C@@H]4C[C@H](O)CC[C@]4(C)[C@H]3CC[C@]12C [LITHOCHOLIC ACID],inducer []
4,CC(C)(C(=O)c1cccnc1)c1cccnc1 [METYRAPONE],inducer []
5,COC(=O)C1=C(C)NC(C)=C(C(=O)OC)C1c1ccccc1[N+](=O)[O-] [NIFEDIPINE],inducer []
6,CC(=O)[C@H]1[C@H](C#N)C[C@H]2[C@@H]3CC=C4C[C@@H](O)CC[C@]4(C)[C@H]3CC[C@@]21C [PREGNENOLONE CARBONITRILE],inducer []
7,CO[C@H]1/C=C/O[C@@]2(C)Oc3c(C)c(O)c4c(O)c(c(/C=N/N5CCN(C)CC5)c(O)c4c3C2=O)NC(=O)/C(C)=C\C=C\[C@H](C)[C@H](O)[C@@H](C)[C@@H](O)[C@@H](C)[C@H](OC(C)=O)[C@@H]1C [RIFAMPIN],inducer []
